Values after ≈ are worked out from the molar mass of the structure shown.
What was measured:
[1] = test system: crude intestinal α-glucosidase; assay: In-vitro mammalian (rat intestinal) α-glucosidase inhibition assay; assay type: biochemical; settings: for Mammalian α Glucosidase Inhibition (Mean ± S.E): highest concentration 5 mg/ml; for IC50: mammalian α-glucosidase, dose response study
Outline: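 p-Nitrophenol release (405 nm) from 5 mM p-nitrophenyl glucoside, read 5 min after substrate addition following 5 min sample–enzyme preincubation in pH 6.8 phosphate buffer. Enzymes: baker's yeast α-glucosidase (0.76 U/ml) and sonicated rat intestinal acetone powder supernatant. Blank-corrected inhibition vs DMSO; IC50 by log regression.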

mice = assay: Adenosine mediated bronchoconstriction and lung inflammation in an allergic mouse model; assay type: in vivo; parameters: Total count: unit not given here; settings: BAL fluid cells; 100 mg/kg oral
Outline: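 Male mice sensitized i.p. with ragweed (days 1, 6), challenged with 0.5% ragweed aerosol twice daily for 3 days; 24 h later dosed orally (acacia suspension; theophylline 100 mg/kg), then challenged with adenosine (24 mg/ml) 2 h post-dose. Respiration recorded by kymograph under pentobarbitone; BAL total and differential cell counts.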

yeast α-glucosidase = target: T1, yeast α-glucosidase (Saccharomyces cerevisiae, UniProt P53341); assay: In-vitro yeast α-glucosidase inhibition assay; assay type: biochemical, bakers yeast
T1 construct: α-Glucosidase [(EC 3.2.1.20) Type I: from bakers yeast]
Source text: Chemicals: α-Glucosidase [(EC 3.2.1.20) Type I: from bakers yeast], rat intestinal acetone powder (as a source of crude intestinal α-glucosidase), α-amylase [EC 3.2.1.1) Type VI B: from porcine pancreas], p-nitrophenyl α-D-glucopyranoside, 3,5-dinitro salicylic acid, soluble potato starch and 1-deoxyrojirimycine, were purchased from Sigma Chemical Co., St Louis, Mo., USA. Other chemicals of analytical grade were procured from indigenous manufacturers.
In-vitro a-Glucosidase Inhibition Assay: Yeast and intestinal a-glucosidase inhibitory activities were determined as per reported methods (Babu et al., 2004; Mc Dougall et al., 2005). Rat intestinal acetone powder in normal saline (100% w/v) was sonicated properly and the supernatant was used as a source of crude intestinal a-glucosidase after centrifugation. In brief, 20 μl, of test samples (100 mg/ml DMSO solution) were reconstituted in 100 μl of 100 mM-Phosphate buffer (pH 6.8) in a 96-well microplate and incubated with 50 μl yeast a-glucosidase (0.76 μ/ml in same buffer) or crude intestinal a-glucosidase for 5 min before 50-μl substrate (5 mM, […] prepared in same buffer) was added. Release of p-nitrophenyol was measured at 405 nm spectrophotometrically (Spectra Mas Plus 384, Molecular Device corporation, Sunnyvale, Calif., USA) 5 min after incubation with substrate, individual blank for test samples were prepared to correct background absorbance where the substrate was replaced with 50 μl of buffer. The control sample contained 20 μl DMSO in place of test samples. The percentage of enzyme inhibition was calculated as (A−B/A)×100 where A is represents the absorbance of the control without test samples, and B represents the absorbance in the presence of test samples. […] The IC50 values were calculated by applying logarithmic regression analysis from the mean inhibitory values.

T1 sequence (P53341 whole entry): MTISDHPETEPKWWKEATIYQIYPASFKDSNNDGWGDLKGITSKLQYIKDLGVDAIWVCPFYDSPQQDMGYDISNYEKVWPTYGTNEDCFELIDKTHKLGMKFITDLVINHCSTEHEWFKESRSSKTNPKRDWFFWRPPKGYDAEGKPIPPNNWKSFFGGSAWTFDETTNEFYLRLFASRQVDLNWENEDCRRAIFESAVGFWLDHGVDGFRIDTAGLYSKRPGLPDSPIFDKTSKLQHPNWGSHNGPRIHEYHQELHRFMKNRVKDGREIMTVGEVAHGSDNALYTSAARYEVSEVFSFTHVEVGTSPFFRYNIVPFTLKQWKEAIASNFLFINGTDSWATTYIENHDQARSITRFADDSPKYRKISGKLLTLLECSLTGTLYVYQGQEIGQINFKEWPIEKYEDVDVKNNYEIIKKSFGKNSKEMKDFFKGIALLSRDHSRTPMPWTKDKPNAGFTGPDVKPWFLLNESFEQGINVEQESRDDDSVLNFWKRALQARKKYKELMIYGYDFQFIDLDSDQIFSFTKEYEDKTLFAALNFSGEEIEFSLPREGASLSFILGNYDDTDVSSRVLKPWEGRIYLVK

Compound | melting point | Mammalian α-glucosidase inhibitory activity (in words) [1] | Mammalian α-glucosidase inhibition (Mean ± S.E) ([1]; 0.039063 mg/ml) | Mammalian α-glucosidase inhibition (Mean ± S.E) ([1]; 0.078125 mg/ml) | Mammalian α-glucosidase inhibition (Mean ± S.E) ([1]; 0.15625 mg/ml) | Mammalian α-glucosidase inhibition (Mean ± S.E) ([1]; 0.3125 mg/ml) | Mammalian α-glucosidase inhibition (Mean ± S.E) ([1]; 0.625 mg/ml) | Mammalian α-glucosidase inhibition (Mean ± S.E) ([1]; 1.25 mg/ml) | Mammalian α-glucosidase inhibition (Mean ± S.E) ([1]; 2.5 mg/ml) | Mammalian α-glucosidase inhibition (Mean ± S.E) ([1]; 5 mg/ml) | Mammalian α Glucosidase Inhibition (Mean ± S.E) [1] | IC50 [1] | Differential count (%) Eosinophils (mice) | Differential count (%) Lymphocytes (mice) | Differential count (%) Monocytes (mice) | Total count (mice) | Yeast α-glucosidase enzyme inhibitory activity (in words) (yeast α-glucosidase) | Yeast α Glucosidase Inhibition (Mean ± S.E) (yeast α-glucosidase; single concentration screen)
CC1CCc2c(nc3sc4c(c3c2N)CCC4)C1 (stereo not drawn) [BN-15, 7-Methyl-2,3,6,7,8,9-hexahydro-1H-cyclopenta[4,5]thieno[2,3-b]quinolin-10-amine] | 263.2 °C | significant inhibitory activity | 11.85 ± 3.45% | 31.57 ± 2.74% | 40.72 ± 2.26% | 52.37 ± 1.64% | 61.83 ± 0.26% | 78.49 ± 1.88% | 83.34 ± 3.13% | 88.87 ± 1.35% | 88.87% | 299 µg/mL (≈ 1160 µM) | 10% | 63.5% | 16.5% | 13 | moderate inhibitory activity | 
Nc1c2c(nc3sc4c(c13)CCC4)CCCCCC2 [BN-17, 2,3,6,7,8,9,10,11-Octahydro-1H-cycloocta [b]cyclopenta[4,5]thieno[3,2-e]pyridin-12-amine] | 256 °C | significant inhibitory activity | 10.04 ± 4.42% | 26.77 ± 1.83% | 34.53 ± 2.61% | 44.41 ± 1.52% | 52.44 ± 1.56% | 66.57 ± 1.11% | 70.69 ± 2.75% | 75.39 ± 13.76% | 75.39% | 528 µg/mL (≈ 1940 µM) | 25% | 75% | 9% | 9 |  | 9.40 ± 4.49%
Nc1c2c(nc3sc4c(c13)CCCCC4)CCC2 [BN-18, 1,2,3,6,7,8,9,10-Octahydrocyclohepta[4,5] thieno[2,3-b]cyclopenta [e]pyridin-11-amine] | 255 °C | moderate inhibitory activity |  |  |  |  |  |  |  |  | 46.22 ± 4.15% |  | 20% | 70% | 15% | 18 | moderate inhibitory activity | 

From US20110269790A1, “NOVEL THIENOPYRIDINES AS PHARMACOLOGICALLY ACTIVE AGENTS” (priority 2009, published 2011)
